This note sets out measurements from patent US11518758B2, “Heteroarylaminopyrimidine amide autophagy inhibitors and methods of use thereof” (Deciphera Pharmaceuticals, LLC, priority 2019, dated 2022).

In general, IC50 refers to the midpoint of a concentration-inhibition curve.

Bounds are passed on as bounds.

What all share (assay type): cell-based, human
Test [1] has as its system phospho-Serine 318 ATG13 (pATG13), ULK kinase substrate, in A549 (KRAS mutant) cells. Nature of the test: pATG13 levels of mutant KRas A549 cells after treatment with ULK inhibitors in combination with trametinib (ELISA). The settings on record: with 250 nM trametinib. The gist of the method: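 A549 cells grown overnight were treated overnight at 37 °C with a dose response of test compound plus 250 nM trametinib (final) or DMSO. Lysates were assayed by sandwich ELISA, with total ATG13 capture and biotinylated pS318-ATG13 detection read at 450 nm minus 540 nm, giving % phosphorylation against control and IC50.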
In general terms: In an ELISA, binding on a coated surface is turned into a signal by an enzyme label.

For test [2], the system named is phospho-Serine 318 ATG13 (pATG13) in MiaPaCa-2 cells. Nature of the test: pATG13 levels of mutant KRas MiaPaCa-2 cells after treatment with ULK inhibitors in combination with trametinib (ELISA). Here is the method: Example 178. pATG13 Levels of Mutant KRas MiaPaCa-2 Cells after Treatment with ULK Inhibitors in Combination with Trametinib
MiaPaCa-2 human pancreatic cancer cells (10000 cells/well) were added to a 384-well tissue-culture treated plate in 50 μL of pre-warmed DMEM medium supplemented with 10% characterized fetal bovine serum (Invitrogen, Carlsbad, Calif.), 100 units/mL penicillin G, 100 μg/mL streptomycin, and 2.5% Horse Serum and allowed to grow overnight at 37° C., 5% CO2, and 95% humidity. The following day, 10 μL of media containing trametinib or DMSO as a control was added to wells. The final concentration of trametinib in wells was 250 nM. A dose response of a test compound (0.6 μL per well) was added. DMSO (0.6 μL) was added to control wells. The plate was briefly shaken to mix wells and then incubated at 37° C. overnight. The next day, the media was aspirated and cells were washed with Dulbecco's Phosphate Buffered Saline (Gibco). Cells were lysed using MPER lysis buffer (Pierce, Rockford, Ill.) containing Halt Phosphatase and Protease Inhibitors (Pierce, Rockford, Ill.) and Phosphatase inhibitor cocktail 2 (Sigma, St. Louis, Mo.) at 4° C. for 10 minutes with shaking.
(§1) Cellular levels of phospho-Serine 318 ATG13 (pATG13) were measured via an ELISA method. Total ATG13 Antibody (Cell Signaling Cat #13273) was used to coat the wells. The plate was incubated at 4° C. overnight and washed with ELISA wash buffer (Biolegend Cat #421601). The wells were then blocked with assay diluent (Biolegend Cat #421203) for 1 hour at room temperature. Plate wells were washed with ELISA wash buffer. Cell lysate was added to wells and incubated at room temperature for 2 hours. Plate wells were washed with ELISA wash buffer. Biotinylated pS318-ATG13 antibody (Rockland Immunochemicals Cat #600-401-C49) was diluted in assay diluent and added to each well and incubated at room temperature for 1 hour. Plate wells were washed with ELISA wash buffer. Streptavidin linked to horseradish peroxidase (Thermo Fisher Cat #21140) was diluted in assay diluent and added to each well and incubated at room temperature for 1 hour. Plate wells were washed with ELISA wash buffer. High sensitivity TMB substrate (Biolegend Cat #421101) was added to each well and incubated at room temperature for 20 minutes. The reaction was stopped with 2N Sulfuric Acid. The plate was analyzed at on a plate reader measuring absorbance at 450 nm and 540 nm (background). Signal was calculated by first subtracting the background absorbance at 540 nm from the absorbance at 450 nm for each well. Next, the background corrected absorbance at 450 nm from blank wells was subtracted from test wells. Data was compared to control wells to determine % ATG13 phosphorylation. GraphPad Prism was used to calculate IC50 values.

Test [3] concerns phospho-Serine 318 ATG13 (pATG13) in A375 cells. As to the kind of experiment: pATG13 levels of mutant BRAF A375 cells after treatment with ULK inhibitors in combination with trametinib (ELISA). The method, then:
Example 180. pATG13 Levels of Mutant BRAF A375 Cells after Treatment with ULK Inhibitors in Combination with Trametinib
(§2) A375 human malignant melanoma cancer cells (20000 cells/well) were added to a 96-well tissue-culture treated plate in 100 μL of pre-warmed DMEM medium supplemented with 10% characterized fetal bovine serum (Invitrogen, Carlsbad, Calif.), 100 units/mL penicillin G, and 100 μg/mL streptomycin and allowed to grow overnight at 37° C., 5% CO2, and 95% humidity. The following day, 100 μL of media containing trametinib or DMSO as a control was added to wells. The final concentration of trametinib in wells was 250 nM. A dose response of a test compound (0.5 μL per well) was added. DMSO (0.5 μL) was added to control wells. The plate was briefly shaken to mix wells and then incubated at 37° C. overnight. The next day, the media was aspirated and cells were washed with Dulbecco's Phosphate Buffered Saline (Gibco). Cells were lysed using MPER lysis buffer (Pierce, Rockford, Ill.) containing Halt Phosphatase and Protease Inhibitors (Pierce, Rockford, Ill.) and Phosphatase inhibitor cocktail 2 (Sigma, St. Louis, Mo.) at 4° C. for 10 minutes with shaking.
as §1

In test [4] the test system is phospho-Serine 318 ATG13 (pATG13) in T24 cells. As to the kind of experiment: pATG13 levels of mutant HRas T24 cells after treatment with ULK inhibitors in combination with trametinib (ELISA). The settings on record: with 250 nM trametinib. Here is the method: Example 181. pATG13 Levels of Mutant HRas T24 Cells after Treatment with ULK Inhibitors in Combination with Trametinib
as §2, with “T24” for “A375”, “urinary bladder” for “malignant melanoma”, “(25000” for “(20000”
as §1

Consider `CCN1CC[C@H](n2cc(Nc3ncc(Br)c(NCCCN4CCCCC4=O)n3)c(C)n2)C1` [Example 64], for which the IC50 was 100 to 300 nM in test [1] and 10 to 100 nM in test [2].
`Cc1nn([C@H]2CCN(C)C2)cc1Nc1ncc(Br)c(NCCCN2CCCCC2=O)n1` [Example 61]: the IC50 was in the range of 10 to 100 nM in test [3], 100 to 300 nM in test [1] and 10 to 100 nM in test [2].
`Cc1nn(C2CCN(C)CC2)cc1Nc1ncc(Cl)c(NCCCN2CCCOCC2=O)n1` [Example 105]: the half-maximal inhibitory concentration (IC50) is more than 600 nM in test [1], 100 to 300 nM in test [4] and 100 to 300 nM in test [2].
On to `CCN1CCC(n2cc(Nc3ncc(C(F)(F)F)c(NCCCN4CCOCCC4=O)n3)c(C)n2)CC1` [Example 130], for which the results for the IC50 in test [1] and in test [2] were 100 to 300 nM and 10 to 100 nM, respectively.
In the case of `CN(C)CCn1cc(Nc2ncc(C(F)(F)F)c(NCCCN3CCCCC3=O)n2)cn1` [Example 32], the IC50 in test [1] was in the range of 100 to 300 nM; in test [4] it was 10 to 100 nM; in test [2], 10 to 100 nM.
As for `Cc1nn(C2CCN(C)CC2)cc1Nc1ncc(C(F)(F)F)c(NCCCN2CCCCCC2=O)n1` [Example 79], the IC50 in test [1] and in test [2] was 10 to 100 nM in each case.
As for `Cc1nn(C2CCN(C(C)C)CC2)cc1Nc1ncc(C(F)(F)F)c(NCCCN2CCCOCC2=O)n1` [Example 108], the half-inhibitory concentration (IC50) in test [1] fell in the range of 300 to 600 nM; in test [2], 100 to 300 nM.
On to `Cc1nn(CCCN2CCOCC2)cc1Nc1ncc(C(F)(F)F)c(NCCCN2CCCCCC2=O)n1` [Example 100], for which the IC50 in test [1], in test [4] and in test [2] was 100 to 300 nM in each case.
For `Cc1nn(CCN(C)C)cc1Nc1ncc(C(F)(F)F)c(NCCCN2CCCCC2=O)n1` [Example 21], the IC50 lay within 300 to 600 nM in test [1] and 100 to 300 nM in test [2].
As to `Cc1nn(C2CCN(C(C)C)CC2)cc1Nc1ncc(C(F)(F)F)c(NCCCN2CCCOC2=O)n1` [Example 68], the half-maximal inhibitory concentration (IC50) in test [3] lay within 100 to 300 nM; in test [1] it was 300 to 600 nM; in test [4] it was 100 to 300 nM; in test [2] it was 10 to 100 nM.
In the case of `Cc1nn(C2CCN(C)CC2)cc1Nc1ncc(C(F)(F)F)c(NCCCN2CCCOCC2=O)n1` [Example 102], the IC50 lay in the range of 100 to 300 nM in test [1] and 10 to 100 nM in test [2].
As for `Cc1nn(C2CCN(C)CC2)cc1Nc1ncc(C(F)(F)F)c(NCCCN2CCOCCC2=O)n1` [Example 127], the IC50 in test [3] was in the range of 10 to 100 nM; in test [1], 100 to 300 nM; in test [4], 10 to 100 nM; in test [2], 10 to 100 nM.
As to `CC(C)N1CCC(n2cc(Nc3ncc(C(F)(F)F)c(NCCCN4CCCCC4=O)n3)cn2)CC1` [Example 6], the IC50 in test [1] and in test [2] was 10 to 100 nM throughout.
Turning to `CCN1CCC(n2cc(Nc3ncc(C(F)(F)F)c(NCCCN4CCCOCC4=O)n3)c(C)n2)CC1` [Example 107], the IC50 in test [1] and in test [2] was 100 to 300 nM each time.
In the case of `CCc1nn(C2CCN(C)CC2)cc1Nc1ncc(Br)c(NCCCN2CCCCC2=O)n1` [Example 53], the half-inhibitory concentration (IC50) in test [3], in test [1] and in test [2] was 100 to 300 nM each time.
Regarding `Cc1nn([C@@H]2CCN(C)C2)cc1Nc1ncc(C(F)(F)F)c(NCCCN2CCCOCC2=O)n1` [Example 106], the figures for the IC50 in test [1] and in test [2] were 100 to 300 nM and 10 to 100 nM, respectively.
As to `Cc1nn([C@@H]2CCN(C)C2)cc1Nc1ncc(C(F)(F)F)c(NCCCN2CCCCC2=O)n1` [Example 18], the IC50 in test [3] is 10 to 100 nM; in test [1], 100 to 300 nM; in test [4] it was 100 to 300 nM.
Consider `Cc1nn(C2CCN(C(C)C)CC2)cc1Nc1ncc(C(F)(F)F)c(NCCCN2CCCCC2=O)n1` [Example 15], for which the IC50 in test [3], in test [1], in test [4] and in test [2] was 10 to 100 nM throughout.
With `Cc1nn(C2CCN(C(C)C)CC2)cc1Nc1ncc(C(F)(F)F)c(NCCCN2CCOCCC2=O)n1` [Example 131], the IC50 lay in the range of 300 to 600 nM in test [1] and 100 to 300 nM in test [2].
Regarding `Cc1nn(C2CCN(C)CC2)cc1Nc1ncc(C(F)(F)F)c(NCCCN2CCCCC2=O)n1` [Example 8], the IC50 in test [3], in test [1] and in test [4] was 10 to 100 nM in each case.
